Assay results as given in PMC9043997, “LEAP2 reduces postprandial glucose excursions and ad libitum food intake in healthy men” (Cell Reports Medicine, 2022).
Where a SMILES comes first, the peptide text is derived from it. Bridges are numbered along the chain shown (N, C = ends).

What was measured:
wild-type mice = test: Fasting insulin and plasma glucose after subcutaneous LEAP2 in fasted wild-type mice; type: in vivo, mouse; settings: fasted female wild-type mice, LEAP2 3 μmol/kg subcutaneous
Protocol: For fasting insulin and glucose concentrations, females (15 weeks of age) were used. Mice were housed four mice per cage. On the experimental day, mice were fasted from four hours before subcutaneous administration until end of the study and randomized by body weight into either vehicle (saline) or LEAP2 dosing (3 μmol/kg). Blood samples were collected at timepoints −60, 20 and 60 min from the retro-orbital vein plexus using EDTA-coated capillary tubes. Plasma was subsequently separated from the blood after centrifugation (3,000 g, 4°C, 5 min) and stored at −80°C until analysis. Blood glucose was measured at timepoints −60, 20 and 60 min from eye blood and at timepoint 0 min from a tail puncture by use of the same glucometer (Contour ™xt meter; Ascensia Diabetes Care, Basel, Switzerland). Mouse plasma insulin concentrations were determined by use of a Mouse/Rat Insulin Kit (cat: K152BZC-1; Meso Scale Discovery, Gaithersburg, Maryland, USA). The assay was performed according to the manufacturer’s instructions, and the plate was measured by use of MESO QuickPlex SQ 120.

healthy men [1] = test: Plasma free fatty acids, glycerol and triglycerides during LEAP2 infusion, crossover study; type: in vivo, human; settings: mean ± SEM
From the text: (§1) The infusion was terminated when participants had finished eating.
(§2) For analysis of plasma glucose, blood was distributed in fluoride heparin-coated tubes, centrifuged immediately for 30 s (12,100 g, room temperature) and measured bedside by the glucose oxidase method (YSI 2900 Biochemistry Analyzer; YSI Incorporated, Yellow Springs, Ohio, USA). For analysis of LEAP2, blood was collected in chilled K3EDTA tubes each containing 250 KIU of aprotinin. For analysis of acyl ghrelin, blood was collected in chilled K2EDTA tubes added 20 μL pefabloc (100 mg/mL; Merck Millipore, Burlington, Massachusetts, USA). Subsequently, pefabloc-treated plasma was acidified with HCl (12.5 μL 2M HCl per 500 μL plasma; Merck Millipore, Burlington, Massachusetts, USA). For analysis of glucagon, blood was collected in K2EDTA tubes. For analysis of GH, insulin, C-peptide, free fatty acids, glycerol, triglycerides and acetaminophen (paracetamol), blood was collected in tubes with lithium and heparin. All tubes were immediately cooled on ice, centrifuged for 15 min (2,000 g, 4°C) and stored at −80°C until analysis. LEAP2 concentrations were determined by an in-house radioimmunoassay directed against the N-terminal part of LEAP2. LEAP-2 was used for standards, and the tracer was a peptide composed of the 12 N-terminal amino acids of LEAP2, with a ^125I-labelled tyrosine added to the C-terminal end. The precision and accuracy of the assay were evaluated based on European Medicines Agency's guidelines for bioanalytical assay validation. […] Due to supply chain disruptions from the COVID-19 pandemic, acyl ghrelin was only measured in plasma samples at timepoints 0, 60, 105, 165 and 255 min. […] Plasma GH was measured by Immunodiagnostic system-iSYS assay (IS-3700; IDS Limited, Boldon, UK). The assay is based on chemiluminesence technology and was performed according to the manufacturer’|'s instructions. […] For analysis of glucagon, plasma was extracted in a final concentration of 70% ethanol. Glucagon was measured using a C-terminal directed antiserum (code number 4305) measuring glucagon of pancreatic origin as previously described.[40] […] Plasma insulin and C-peptide were measured using a two-sided electrochemiluminescence immunoassay (Atellica IM Analyzer; Siemens Healthcare, Ballerup, Denmark). Plasma triglycerides and acetaminophen were analyzed by spectrophotometric methods following enzymatic hydrolysis and oxidation (Siemens Atellica CH 930; Siemens Healthcare, Ballerup, Denmark). Plasma concentrations of free fatty acids and glycerol were determined by enzymatic methods modified to run on a COBAS 6000 automatic analyzer (Roche, Rødovre, Denmark) using a NEFA-HR assay (Wako Chemicals, Neuss, Germany) and glycerol assay (Randox Laboratories, Crumlin, UK), respectively.
(§3) Unless otherwise stated, results are presented as mean ± SEM. Baseline values were calculated as a mean of timepoints −35, −10 and 0 min or, when only available −10 and 0 min. Baseline values for the postprandial period were calculated as a mean of timepoint 60 min. Calculations of AUC were based on the trapezoidal rule. AUC values are reported for the period 0 to 255 min. To assess the fasting and postprandial periods separately, AUC values are reported for the periods 0 to 60 min and 60 to 255 min, respectively. Student’s paired t test was used to test for differences in baseline, peak, time to peak, AUC and mean values and ad libitum food intake in men.

healthy men [2] = test: Plasma growth hormone during LEAP2 infusion, crossover study; type: in vivo, human; settings: mean ± SEM
From the text: as §1, §2, §3

healthy men [3] = test: Plasma acyl ghrelin during LEAP2 infusion, crossover study; type: in vivo, human; settings: mean ± SEM
From the text: as §1, §2, §3

healthy men [4] = test: Plasma glucose during LEAP2 infusion with liquid mixed meal test, crossover study; type: in vivo, human; settings: mean ± SEM
From the text: as §1, §2, §3

healthy men [5] = test: Visual analog scale ratings of appetite-related sensations, crossover study; type: in vivo, human; settings: healthy men n = 20, iv LEAP2 ~25 pmol/kg/min, 100 mm VAS, paired t test of AUC
Protocol: Sensations of hunger, satiety, prospective food consumption, fullness, nausea, comfort and thirst were rated on 100 mm VAS at timepoints −35, 0, 30, 75, 105, 135, 165, 195, 225 and 255 min and after the ad libitum meal.[34] After eating, participants evaluated the ad libitum meal by VAS with a score (median (interquartile range)) for appearance of 55 (36–72) mm, taste 65 (42–76) mm, off-notes 17 (7–31) mm, smell 63 (50–72) mm and overall impression 59 (45–73) mm indicating a moderate evaluation of the meal.

[6] = healthy men n = 20, LEAP2 day, before infusion
[7] = healthy men n = 20, iv LEAP2 ~25 pmol/kg/min, 0 to 255 min
[8] = healthy men n = 20, iv LEAP2 ~25 pmol/kg/min, fasting period
[9] = healthy men n = 20, iv LEAP2 ~25 pmol/kg/min, liquid mixed meal at 65 min
[10] = healthy men n = 20, iv LEAP2 ~25 pmol/kg/min, postprandial period
[11] = healthy men n = 20, iv LEAP2 ~25 pmol/kg/min, time = 60 min

With CC[C@H](C)[C@@H]1NC(=O)[C@@H]2CSSC[C@@H](C(=O)N[C@@H](CO)C(=O)N[C@@H](CC(C)C)C(=O)N[C@@H](CO)C(=O)N[C@H](C(=O)N[C@@H](C)C(=O)N[C@@H](CCC(N)=O)C(=O)N[C@@H](CCC(=O)O)C(=O)O)C(C)C)NC(=O)[C@H](CCCNC(=N)N)NC(=O)[C@H](CCCNC(=N)N)NC(=O)[C@H](CCCCN)NC(=O)[C@H](CCCNC(=N)N)NC(=O)[C@H](CSSC[C@H](NC(=O)[C@H](CO)NC(=O)[C@H](C)NC(=O)CNC(=O)[C@@H](NC(=O)[C@@H]3CCCN3C(=O)[C@H](CCCNC(=N)N)NC(=O)[C@H](CC(C)C)NC(=O)[C@H](CO)NC(=O)[C@@H](NC(=O)CNC(=O)[C@H](CCCNC(=N)N)NC(=O)[C@H](Cc3c[nH]c4ccccc34)NC(=O)[C@H](Cc3ccccc3)NC(=O)[C@@H]3CCCN3C(=O)[C@@H](NC(=O)[C@@H](N)CCSC)[C@@H](C)O)C(C)C)[C@@H](C)CC)C(=O)N[C@@H](CCCNC(=N)N)C(=O)N[C@@H](CC(=O)O)C(=O)N[C@@H](CC(=O)O)C(=O)N[C@@H](CO)C(=O)N[C@@H](CCC(=O)O)C(=O)N2)NC(=O)[C@H](CC(C)C)NC(=O)[C@H](CCCNC(=N)N)NC(=O)[C@H]([C@@H](C)O)NC1=O [LEAP2, liver-expressed antimicrobial peptide 2] (H-MTPFWRGVSLRPIGASCRDDSECITRLCRKRRCSLSVAQE-OH; disulfide 17-28, 23-33 (inferred); N-terminus and C-terminus assumed) the “fasting plasma glucose concentrations vs vehicle” value (wild-type mice) was “did not affect fasting plasma glucose concentrations”, the “fasting insulin concentrations vs vehicle” value (wild-type mice; 20 and 60 min) was “no effect” and the “Free fatty acids Baseline” value (healthy men [1]; [6]) was 339 ± 18.4 µmol/L. The “Glycerol Baseline” value (healthy men [1]; [6]) was 26.6 ± 2.45 µmol/L, the “Triglycerides Baseline” value (healthy men [1]; [6]) was 920 ± 62.2 µmol/L and the “Free fatty acids AUC” value (healthy men [1]; [7]) was 43.2 ± 2.49 mmol·min/L. For the same compound, the “Glycerol AUC” value (healthy men [1]; [7]) was 4.87 ± 0.57 mmol·min/L, the “Triglycerides AUC” value (healthy men [1]; [7]) was 263 ± 16.7 mmol·min/L and the “Free fatty acids AUC0–60 min” value (healthy men [1]; [8]) was 18.9 ± 1.18 mmol·min/L. The “Glycerol AUC0–60 min” value (healthy men [1]; [8]) was 1.65 ± 0.15 mmol·min/L, the “Triglycerides AUC0–60 min” value (healthy men [1]; [8]) was 53.5 ± 3.14 mmol·min/L and the “Free fatty acids Nadir” value (healthy men [1]; [9]) was 58.4 ± 3.94 µmol/L. For the same compound, the “Free fatty acids Time to nadir” value (healthy men [1]; [9]) was 155 ± 7.63 min, the “Glycerol Nadir” value (healthy men [1]; [9]) was 11.7 ± 2.12 µmol/L and the “Glycerol Time to nadir” value (healthy men [1]; [9]) was 144 ± 10.2 min. For the same compound, the “Triglycerides Peak” value (healthy men [1]; [9]) was 1,275 ± 84.8 μmol/L, the “Triglycerides Time to peak” value (healthy men [1]; [9]) was 195 ± 5.33 min and the “Free fatty acids AUC60–255 min” value (healthy men [1]; [10]) was 24.4 ± 1.51 mmol·min/L. For the same compound, the “Glycerol AUC60–255 min” value (healthy men [1]; [10]) was 3.22 ± 0.44 mmol·min/L, the “Triglycerides AUC60–255 min” value (healthy men [1]; [10]) was 210 ± 13.8 mmol·min/L and the “Free fatty acids Postprandial baseline” value (healthy men [1]; [11]) was 272 ± 16.4 µmol/L. The “Glycerol Postprandial baseline” value (healthy men [1]; [11]) was 22.9 ± 2.12 µmol/L, the “Triglycerides Postprandial baseline” value (healthy men [1]; [11]) was 847 ± 48.3 µmol/L and the “Growth hormone Baseline” value (healthy men [2]; [6]) was 0.594 ± 0.300 ng/mL. The “Growth hormone AUC” value (healthy men [2]; [7]) was 33.8 ± 11.8 ng·min/mL, the “Growth hormone AUC0–60 min” value (healthy men [2]; [8]) was 20.2 ± 9.76 ng·min/mL and the “Growth hormone Nadir” value (healthy men [2]; [9]) was 0.042 ± 0.004 ng/mL. For the same compound, the “Growth hormone Time to nadir” value (healthy men [2]; [9]) was 116 ± 17.2 min, the “Growth hormone AUC60–255 min” value (healthy men [2]; [10]) was 13.6 ± 2.32 ng·min/mL and the “Growth hormone Postprandial baseline” value (healthy men [2]; [11]) was 0.121 ± 0.048 ng/mL. The “Acyl ghrelin Baseline” value (healthy men [3]; [6]) was 0.155 ± 0.011 ng/mL, the “Acyl ghrelin AUC” value (healthy men [3]; [7]) was 31.2 ± 1.94 ng·min/mL and the “Acyl ghrelin AUC0–60 min” value (healthy men [3]; [8]) was 9.50 ± 0.67 ng·min/mL. The “Acyl ghrelin Nadir” value (healthy men [3]; [9]) was 0.088 ± 0.006 ng/mL, the “Acyl ghrelin AUC60–255 min” value (healthy men [3]; [10]) was 21.7 ± 1.33 ng·min/mL and the “Acyl ghrelin Postprandial baseline” value (healthy men [3]; [11]) was 0.161 ± 0.012 ng/mL. For the same compound, the “Glucose Baseline” value (healthy men [4]; healthy men n = 20, LEAP2 day, before infusion (mean of -35, -10, 0 min)) was 5.02 ± 0.06 mmol/L, the “Glucose AUC” value (healthy men [4]; healthy men n = 20, iv LEAP2 ~25 pmol/kg/min, 0 to 255 min, trapezoidal) was 1,288 ± 13.4 mmol/L × min and the “Glucose Postprandial end” value (healthy men [4]; healthy men n = 20, iv LEAP2 ~25 pmol/kg/min, after liquid mixed meal) was 4.48 ± 0.11 mmol/L. For the same compound, the plasma glucose AUC 0–60 min (healthy men [4]; [8]) was 295 ± 3.02 mmol/L/min, the “Glucose Peak” value (healthy men [4]; [9]) was 6.21 ± 0.12 mmol/L and the “Glucose Time to peak” value (healthy men [4]; [9]) was 140 ± 12.7 min. For the same compound, the “Glucose AUC60–255 min” value (healthy men [4]; healthy men n = 20, iv LEAP2 ~25 pmol/kg/min, postprandial period after liquid mixed meal) was 992 ± 12.4 mmol·min/L, the “Glucose Postprandial baseline” value (healthy men [4]; [11]) was 4.96 ± 0.05 mmol/L and the “VAS ratings of hunger, satiety, prospective food consumption, fullness, nausea, comfort, or thirst, LEAP2 vs placebo” value (healthy men [5]) was “no differences”.
